Test results reported in patent publication US20070117770A1, “Human ribosomal DNA (rDNA) and ribosomal RNA (rRNA) nucleic acids and uses thereof” (Cylene Pharmaceuticals, Inc., priority 2005, published 2007).

Legend:
Experiment in all cases: Protein kinase inhibition assay
Type in all cases: biochemical
MST1(h) = MST1(h) (Homo sapiens, UniProt Q13043); conditions: read-out: percent residual activity of MST1(h)
Method: (§1) Certain compounds were tested for activity in protein kinase inhibition assays. All substrates were dissolved and diluted to working stocks in de-ionized water, apart from histone H1 (10× working stock in 20 mM MOPS pH 7.0), PDKtide (10× working stock in 50 mM Tris pH 7.0) ATF2 (which is typically stored at a 20× working stock in 50 mM Tris pH 7.5, 150 mM NaCl, 0.1 mM EGTA, 0.03% Brij-35, 50% glycerol, 1 mM benzamidine, 0.2 mM PMSF and 0.1% R-mercaptoethanol), KKLNRTLSFAEPG (SEQ ID NO:203) and RRRLSFAEPG (SEQ ID NO:204) (50 mM HEPES pH 7.4) and GGEEEEYFELVKKKK (SEQ ID NO:205) (20 mM MOPS pH 7.0). All kinases were pre-diluted to a 10× working concentration prior to addition into the assay. The composition of the dilution buffer for each kinase is detailed below.
(§2) In a final reaction volume of 25 μl, MST1 (h) (5-10 mU) is incubated with 8 mM MOPS pH 7.0, 0.2 mM EDTA, 250 μM KKSRGDYMTMQIG (SEQ ID NO:210), 10 mM MgAcetate and [gamma-33P-ATP] (specific activity approx. 500 cpm/pmol, concentration as required). The reaction is initiated by the addition of the MgATP mix. After incubation for 40 minutes at room temperature, the reaction is stopped by the addition of 5 μl of a 3% phosphoric acid solution. 10 μl of the reaction is then spotted onto a P30 filtermat and washed three times for 5 minutes in 75 mM phosphoric acid and once in methanol prior to drying and scintillation counting.

Lck(h) = Lck(h) (Homo sapiens, UniProt P06239); conditions: read-out: percent residual activity of Lck(h)
Sequence of Lck(h) (P06239 whole entry): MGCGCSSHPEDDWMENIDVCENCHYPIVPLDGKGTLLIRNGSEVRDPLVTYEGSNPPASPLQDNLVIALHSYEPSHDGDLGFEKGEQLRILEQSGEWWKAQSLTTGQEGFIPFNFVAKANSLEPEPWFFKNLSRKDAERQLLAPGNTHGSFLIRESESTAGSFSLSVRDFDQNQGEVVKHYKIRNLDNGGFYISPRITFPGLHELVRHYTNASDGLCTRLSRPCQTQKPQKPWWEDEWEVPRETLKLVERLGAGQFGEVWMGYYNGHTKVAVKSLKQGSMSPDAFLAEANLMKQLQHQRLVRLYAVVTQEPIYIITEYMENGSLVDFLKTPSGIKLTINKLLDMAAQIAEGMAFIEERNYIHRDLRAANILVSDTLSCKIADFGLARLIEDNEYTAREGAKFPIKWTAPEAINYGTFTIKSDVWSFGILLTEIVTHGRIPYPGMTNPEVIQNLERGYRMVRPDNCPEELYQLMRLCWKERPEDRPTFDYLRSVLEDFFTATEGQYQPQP
Method: as §1
(§3) In a final reaction volume of 25 μl, Lck (h) (5-10 mU) is incubated with 50 mM Tris pH 7.5, 0.1 mM EGTA, 0.1 mM Na3VO4, 250 μM KVEKIGEGTYGVVYK (SEQ ID NO:211) (Cdc2 peptide), 10 mM MgAcetate and [gamma-33P-ATP] (specific activity approx. 500 cpm/pmol, concentration as required). The reaction is initiated by the addition of the MgATP mix. After incubation for 40 minutes at room temperature, the reaction is stopped by the addition of 5 μl of a 3% phosphoric acid solution. […]

ZAP-70(h) = ZAP-70(h) (Homo sapiens, UniProt P43403); conditions: read-out: percent residual activity of ZAP-70(h)
Sequence of ZAP-70(h) (P43403 whole entry): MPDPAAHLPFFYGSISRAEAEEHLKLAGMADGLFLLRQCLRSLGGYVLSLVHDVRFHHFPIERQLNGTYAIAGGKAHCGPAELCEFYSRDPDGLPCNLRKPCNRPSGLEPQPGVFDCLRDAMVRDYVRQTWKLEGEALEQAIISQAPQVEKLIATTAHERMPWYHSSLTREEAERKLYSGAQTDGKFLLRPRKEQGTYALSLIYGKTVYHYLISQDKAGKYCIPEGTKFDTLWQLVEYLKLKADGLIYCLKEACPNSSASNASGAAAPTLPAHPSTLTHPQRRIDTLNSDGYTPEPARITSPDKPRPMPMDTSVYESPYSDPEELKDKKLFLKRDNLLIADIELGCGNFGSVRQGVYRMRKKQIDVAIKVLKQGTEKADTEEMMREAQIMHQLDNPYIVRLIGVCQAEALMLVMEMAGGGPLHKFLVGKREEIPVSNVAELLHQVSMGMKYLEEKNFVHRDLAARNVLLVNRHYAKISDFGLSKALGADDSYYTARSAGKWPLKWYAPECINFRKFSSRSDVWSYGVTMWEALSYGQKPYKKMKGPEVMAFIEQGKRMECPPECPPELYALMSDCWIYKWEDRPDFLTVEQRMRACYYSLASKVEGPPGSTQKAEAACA
Method: as §1
as §3, with “ZAP-70” for “Lck”, “0.1% R-mercaptoethanol, 0.1 mg/ml poly(Glu, Tyr) 4:1, 10 mM MnCl2,” for “250 μM KVEKIGEGTYGVVYK (SEQ ID NO:211) (Cdc2 peptide),”

EphB3(h) = EphB3(h) (Homo sapiens, UniProt P54753); conditions: read-out: percent residual activity of EphB3(h)
Sequence of EphB3(h) (P54753 34-998): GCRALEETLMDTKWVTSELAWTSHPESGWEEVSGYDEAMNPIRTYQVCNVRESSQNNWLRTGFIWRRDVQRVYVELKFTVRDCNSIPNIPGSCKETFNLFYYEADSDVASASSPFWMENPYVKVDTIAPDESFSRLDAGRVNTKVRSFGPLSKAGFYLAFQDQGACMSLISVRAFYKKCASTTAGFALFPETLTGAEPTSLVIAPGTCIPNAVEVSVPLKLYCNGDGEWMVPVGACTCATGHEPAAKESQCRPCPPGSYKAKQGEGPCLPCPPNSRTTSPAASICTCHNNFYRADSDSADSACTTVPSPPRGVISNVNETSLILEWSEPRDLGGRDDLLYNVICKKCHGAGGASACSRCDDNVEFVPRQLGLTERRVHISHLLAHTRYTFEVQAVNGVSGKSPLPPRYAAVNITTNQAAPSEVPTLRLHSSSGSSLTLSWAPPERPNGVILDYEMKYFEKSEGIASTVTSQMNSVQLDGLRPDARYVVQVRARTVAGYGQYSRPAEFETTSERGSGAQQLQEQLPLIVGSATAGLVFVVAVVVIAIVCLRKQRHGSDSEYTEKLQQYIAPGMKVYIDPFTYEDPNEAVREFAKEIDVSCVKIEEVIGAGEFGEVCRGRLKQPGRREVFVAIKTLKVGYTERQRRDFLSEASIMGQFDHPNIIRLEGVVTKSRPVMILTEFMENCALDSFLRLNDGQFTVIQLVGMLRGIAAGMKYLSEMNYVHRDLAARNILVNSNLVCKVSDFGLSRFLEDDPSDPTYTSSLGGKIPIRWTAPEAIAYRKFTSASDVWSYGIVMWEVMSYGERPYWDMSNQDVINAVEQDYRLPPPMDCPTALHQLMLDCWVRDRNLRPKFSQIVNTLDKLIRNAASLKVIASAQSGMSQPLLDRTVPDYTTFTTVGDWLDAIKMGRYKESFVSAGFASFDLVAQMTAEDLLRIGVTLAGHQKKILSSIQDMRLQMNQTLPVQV
Method: as §1
as §2, with “EphB3” for “MST1”, “10 mM MnCl2, 0.1 mg/ml poly (Glu, Tyr) 4:1,” for “250 μM KKSRGDYMTMQIG (SEQ ID NO:210),”, “Filtermat A” for “P30 filtermat”

EphA4(h) = EphA4(h) (Homo sapiens, UniProt P54764); conditions: read-out: percent residual activity of EphA4(h)
Sequence of EphA4(h) (P54764 20-986): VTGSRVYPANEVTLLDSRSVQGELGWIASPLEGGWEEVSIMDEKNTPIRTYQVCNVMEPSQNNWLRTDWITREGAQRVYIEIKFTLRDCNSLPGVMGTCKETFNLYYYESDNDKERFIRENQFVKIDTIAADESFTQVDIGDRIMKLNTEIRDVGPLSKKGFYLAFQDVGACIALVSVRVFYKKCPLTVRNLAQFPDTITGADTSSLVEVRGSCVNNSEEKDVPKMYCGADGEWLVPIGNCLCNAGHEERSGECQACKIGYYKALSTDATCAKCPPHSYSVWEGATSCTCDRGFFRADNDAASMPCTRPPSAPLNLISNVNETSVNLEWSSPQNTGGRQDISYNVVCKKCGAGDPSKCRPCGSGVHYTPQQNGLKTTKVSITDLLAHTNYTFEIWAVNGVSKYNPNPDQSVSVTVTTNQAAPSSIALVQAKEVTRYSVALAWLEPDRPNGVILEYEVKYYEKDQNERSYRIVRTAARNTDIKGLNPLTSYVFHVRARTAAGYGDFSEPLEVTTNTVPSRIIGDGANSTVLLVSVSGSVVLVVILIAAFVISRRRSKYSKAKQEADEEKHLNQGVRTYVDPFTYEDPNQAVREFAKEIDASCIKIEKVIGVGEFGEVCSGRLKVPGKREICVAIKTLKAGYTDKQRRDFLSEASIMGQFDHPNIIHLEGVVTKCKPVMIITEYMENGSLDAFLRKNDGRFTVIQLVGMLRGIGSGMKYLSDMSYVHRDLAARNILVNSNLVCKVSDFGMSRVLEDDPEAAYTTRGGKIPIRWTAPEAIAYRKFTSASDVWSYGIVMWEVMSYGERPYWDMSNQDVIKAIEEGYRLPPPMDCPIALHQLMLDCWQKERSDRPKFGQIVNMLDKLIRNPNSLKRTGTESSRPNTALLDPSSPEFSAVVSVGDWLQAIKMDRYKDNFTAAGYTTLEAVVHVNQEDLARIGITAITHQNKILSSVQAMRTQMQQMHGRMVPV
Method: as §1
as §2, with “EphA4” for “MST1”, “10 mM MnCl2, 0.1 mg/ml poly(Glu, Tyr) 4:1,” for “250 μM KKSRGDYMTMQIG (SEQ ID NO:210),”, “[y-33P-ATP]” for “[gamma-33P-ATP]”, “Filtermat A” for “P30 filtermat”

Fms(h) = Fms(h) (Homo sapiens, UniProt P07333); conditions: read-out: percent residual activity of Fms(h)
Sequence of Fms(h) (P07333 20-972): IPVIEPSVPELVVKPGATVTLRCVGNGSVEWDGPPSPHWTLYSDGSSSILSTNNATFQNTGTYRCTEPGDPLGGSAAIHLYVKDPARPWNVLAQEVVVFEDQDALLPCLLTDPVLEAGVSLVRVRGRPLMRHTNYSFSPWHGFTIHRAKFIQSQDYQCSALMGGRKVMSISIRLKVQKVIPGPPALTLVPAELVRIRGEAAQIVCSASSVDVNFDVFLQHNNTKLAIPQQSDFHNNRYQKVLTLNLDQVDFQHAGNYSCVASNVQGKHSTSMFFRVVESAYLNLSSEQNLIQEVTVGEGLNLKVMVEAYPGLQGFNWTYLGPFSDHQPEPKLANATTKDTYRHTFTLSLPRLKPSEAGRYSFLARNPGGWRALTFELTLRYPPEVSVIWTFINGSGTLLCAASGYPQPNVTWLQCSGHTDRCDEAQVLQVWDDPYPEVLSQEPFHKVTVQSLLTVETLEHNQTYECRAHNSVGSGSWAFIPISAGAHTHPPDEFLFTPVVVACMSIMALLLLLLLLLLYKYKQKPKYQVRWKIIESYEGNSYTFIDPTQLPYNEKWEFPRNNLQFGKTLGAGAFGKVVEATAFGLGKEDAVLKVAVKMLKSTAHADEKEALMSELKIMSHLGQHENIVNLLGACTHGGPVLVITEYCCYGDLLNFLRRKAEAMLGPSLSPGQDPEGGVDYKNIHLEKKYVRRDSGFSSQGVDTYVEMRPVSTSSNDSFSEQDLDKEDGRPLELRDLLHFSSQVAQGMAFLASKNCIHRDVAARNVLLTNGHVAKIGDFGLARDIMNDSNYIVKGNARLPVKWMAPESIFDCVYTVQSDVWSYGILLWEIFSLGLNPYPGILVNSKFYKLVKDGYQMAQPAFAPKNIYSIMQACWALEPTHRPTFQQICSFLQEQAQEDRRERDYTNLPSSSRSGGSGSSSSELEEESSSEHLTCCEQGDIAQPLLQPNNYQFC
Method: as §1
as §2, with “Fms” for “MST1”, “KKKSPGEYVNIEFG” for “KKSRGDYMTMQIG”, “NO:207),” for “NO:210),”, “[y-33P-ATP]” for “[gamma-33P-ATP]”

Sequence of MST1(h) (Q13043 whole entry): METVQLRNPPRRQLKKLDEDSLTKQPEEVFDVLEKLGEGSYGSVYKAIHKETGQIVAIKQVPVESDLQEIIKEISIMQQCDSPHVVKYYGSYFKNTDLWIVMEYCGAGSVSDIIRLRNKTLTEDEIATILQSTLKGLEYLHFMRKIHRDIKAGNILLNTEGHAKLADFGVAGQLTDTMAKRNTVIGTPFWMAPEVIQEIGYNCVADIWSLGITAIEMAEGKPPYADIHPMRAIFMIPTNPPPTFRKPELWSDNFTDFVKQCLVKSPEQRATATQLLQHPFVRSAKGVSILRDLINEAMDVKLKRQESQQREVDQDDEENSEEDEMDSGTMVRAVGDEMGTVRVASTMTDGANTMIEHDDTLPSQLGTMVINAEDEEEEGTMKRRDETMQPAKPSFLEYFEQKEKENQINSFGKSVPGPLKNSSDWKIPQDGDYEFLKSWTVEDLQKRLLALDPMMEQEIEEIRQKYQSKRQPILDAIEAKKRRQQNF

Row | remaining activity at 2.5 µM (MST1(h)) | remaining activity at 2.5 µM (Lck(h)) | remaining activity at 2.5 µM (ZAP-70(h)) | remaining activity at 2.5 µM (EphB3(h)) | remaining activity at 2.5 µM (EphA4(h)) | remaining activity at 2.5 µM (Fms(h)) | SMILES
1 | 76% | 170% | 130% | 111% | 107% | 131% | CN1CCCC1CCNC(=O)c1cn2c3c(c(N4CCC(c5cnccn5)C4)c(F)cc3c1=O)Oc1cc3ccccc3cc1-2 (stereo not drawn) [Compound A-1]
2 | 96% | 115% | 105% | 115% | 134% | 107% | CC(=O)N1CCN(c2ccc3c(=O)c(C(=O)NCCN4CCCC4)c4n(C)c5ccccc5n4c3n2)CC1 [Compound B-1]
